Laboratory results from patent US20260274832A1, “COMPOUNDS AND THEIR USE IN TREATING CANCER” (ASTRAZENECA AB, priority 2023, published 2026).

How the values were obtained:
[1] = target: T1, AR (AR-full length) in LNCaP cells (Homo sapiens, UniProt P10275, T878A); test: LNCaP Androgen Receptor Imaging Assay (immunofluorescence of endogenous nuclear AR); assay type: cell-based; details: 24 h incubation; for DC50: concentration giving 50% of maximum degradation of AR per curve fit, single experiment or average of two or more; for Dmax: LNCaP, maximum degradation observed, normalized as % of positive control (prior art AR PROTAC at 3 μM)
T1 construct: the prostate cancer cell line LNCaP (expressing AR-full length); endogenous in cells; host or cells: LNCaP
How it was run: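 LNCaP cells (12,000/well) received a 12-point compound dose series (0.3% DMSO) for 24 h at 37° C., then were PFA-fixed and stained for AR (AR441) and nuclei (DRAQ5). Nuclear AR was quantified by imaging, normalized to a 3 μM AR PROTAC control; DC50 and Dmax came from Hill/bell curve fits.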

[2] = target: T2, AR (L702H) in LNCaP cells (Homo sapiens, UniProt P10275, L702H/T878A); test: LNCaP Androgen Receptor L702H Imaging Assay (LNCaP cells engineered by CRISPR/Cas9); assay type: cell-based; details: LNCaP cells with AR L702H mutation, 24 h incubation; for DC50: concentration giving 50% of maximum degradation of AR (L702H) per curve fit; for Dmax: LNCaP, maximum degradation observed, normalized as % of positive control
T2 construct: engineered to introduce the mutation L702H into the AR gene using CRISPR/Cas9; endogenous in cells; host or cells: LNCaP cells edited by CRISPR/Cas9 at the AR gene
How it was run: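 CRISPR-engineered LNCaP cells carrying AR L702H were treated 24 h at 37 °C with a 12-point compound dose response (0.3% DMSO), then fixed and immunostained for AR with DRAQ5 nuclear counterstain. Nuclear AR was quantified by imaging, normalized to positive control; DC50 and Dmax came from Hill or bell-shaped fits.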

T2 sequence (P10275 whole entry L702H/T878A): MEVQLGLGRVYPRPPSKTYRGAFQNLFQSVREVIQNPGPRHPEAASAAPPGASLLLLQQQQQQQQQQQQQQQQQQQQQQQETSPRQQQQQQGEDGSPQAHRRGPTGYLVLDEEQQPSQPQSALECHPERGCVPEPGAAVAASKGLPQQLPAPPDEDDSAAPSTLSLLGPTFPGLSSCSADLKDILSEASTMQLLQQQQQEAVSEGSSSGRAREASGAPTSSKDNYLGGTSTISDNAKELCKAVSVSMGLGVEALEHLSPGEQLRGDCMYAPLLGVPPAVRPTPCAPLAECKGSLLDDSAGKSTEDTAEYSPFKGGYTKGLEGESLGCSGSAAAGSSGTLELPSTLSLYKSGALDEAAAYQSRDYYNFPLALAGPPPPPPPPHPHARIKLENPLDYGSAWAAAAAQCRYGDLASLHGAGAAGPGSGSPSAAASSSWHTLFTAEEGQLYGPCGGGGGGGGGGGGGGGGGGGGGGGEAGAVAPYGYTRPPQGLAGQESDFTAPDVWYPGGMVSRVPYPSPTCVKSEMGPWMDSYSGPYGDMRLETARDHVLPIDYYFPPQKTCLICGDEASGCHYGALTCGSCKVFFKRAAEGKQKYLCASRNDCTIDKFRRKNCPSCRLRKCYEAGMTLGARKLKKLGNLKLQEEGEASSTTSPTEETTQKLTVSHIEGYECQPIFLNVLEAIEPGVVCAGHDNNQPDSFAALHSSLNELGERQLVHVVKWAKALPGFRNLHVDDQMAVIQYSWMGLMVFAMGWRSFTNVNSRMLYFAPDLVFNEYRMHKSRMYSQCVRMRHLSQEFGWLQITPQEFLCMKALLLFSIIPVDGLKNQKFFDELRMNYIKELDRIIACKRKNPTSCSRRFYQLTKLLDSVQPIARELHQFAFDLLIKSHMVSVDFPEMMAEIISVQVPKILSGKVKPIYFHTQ
T2 sequence (Q96SW2 whole entry partner): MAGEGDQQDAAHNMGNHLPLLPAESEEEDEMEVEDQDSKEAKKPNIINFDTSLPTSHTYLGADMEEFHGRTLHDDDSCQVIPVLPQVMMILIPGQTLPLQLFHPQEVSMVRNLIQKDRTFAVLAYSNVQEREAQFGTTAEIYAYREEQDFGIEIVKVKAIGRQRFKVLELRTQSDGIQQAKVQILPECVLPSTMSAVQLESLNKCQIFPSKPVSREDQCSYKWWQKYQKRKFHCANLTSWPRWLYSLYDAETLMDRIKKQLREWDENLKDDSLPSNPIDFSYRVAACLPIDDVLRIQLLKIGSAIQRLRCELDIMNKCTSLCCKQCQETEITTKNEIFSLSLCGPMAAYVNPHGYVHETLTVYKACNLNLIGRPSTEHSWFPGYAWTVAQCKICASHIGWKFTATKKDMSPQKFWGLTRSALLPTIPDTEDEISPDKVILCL
T1 sequence (P10275 whole entry T878A): as the sequence (P10275 whole entry L702H/T878A) above, with H702L counted along it
T1 sequence (Q96SW2 whole entry partner): as the sequence (Q96SW2 whole entry partner) above

Compound	DC50 [1] [µM]	Dmax [1] [%]	DC50 [2] [µM]	Dmax [2] [%]
N#Cc1c[nH]c2c(N3CCC[C@@H](c4ccc(N5CCC(CN6Cc7cc8c(cc7C6)C(=O)N(C6CCC(=O)NC6=O)C8=O)CC5)cc4)C3)ccc(Cl)c12 (stereo partly drawn) [Example 77, 4-Chloro-7-{(3S)-3-[4-(4-{[6-(2,6-dioxopiperidin-3-yl)-5,7-dioxo-3,5,6,7-tetrahydropyrrolo[3,4-f]isoindol-2(1H)-yl]methyl}piperidin-1-yl)phenyl]piperidin-1-yl}-1H-indole-3-carbonitrile]	0.014	79	0.067	69
Cn1c(C2CCN(CC3CCN(c4ccc(C5CCN(c6ccc(Cl)c7c(C#N)c[nH]c67)CC5)cc4)CC3)CC2)cc2ccc(N3CCC(=O)NC3=O)cc21 [Example 84, 4-Chloro-7-(4-{4-[4-({4-[6-(2,4-dioxo-1,3-diazinan-1-yl)-1-methyl-1H-indol-2-yl]piperidin-1-yl}methyl)piperidin-1-yl]phenyl}piperidin-1-yl)-1H-indole-3-carbonitrile]	0.022	99	0.012	103
N#Cc1c[nH]c2c(N3CCC(c4ccc(C(=O)N5CCC(CN6CCN(c7ccc8c(c7)CN(C7CCC(=O)NC7=O)C8=O)CC6)CC5)cc4)CC3)ccc(Cl)c12 (stereo not shown) [Example 85, 4-Chloro-7-(4-{4-[4-({4-[2-(2,6-dioxopiperidin-3-yl)-1-oxo-2,3-dihydro-1H-isoindol-5-yl]piperazin-1-yl}methyl)piperidine-1-carbonyl]phenyl}piperidin-1-yl)-1H-indole-3-carbonitrile]	0.004	98	0.017	83
COc1nc(N2CCN(C3CCN(c4ccc(C5CCN(c6ccc(Cl)c7c(C#N)c[nH]c67)CC5)cc4)CC3)CC2)cc2c1C(=O)N(C1CCC(=O)NC1=O)C2 (stereo not shown) [Example 86, 4-Chloro-7-{4-[4-(4-{4-[2-(2,6-dioxopiperidin-3-yl)-4-methoxy-3-oxo-2,3-dihydro-1H-pyrrolo[3,4-c]pyridin-6-yl]piperazin-1-yl}piperidin-1-yl)phenyl]piperidin-1-yl}-1H-indole-3-carbonitrile]	0.015	94	0.014	99
COc1nc(N2CCN(CCC3CCN(c4ccc(C5CCN(c6ccc(Cl)c7c(C#N)c[nH]c67)CC5)cc4)CC3)CC2)cc2c1C(=O)N(C1CCC(=O)NC1=O)C2 (stereo not shown) [Example 87, 4-Chloro-7-(4-{4-[4-(2-{4-[2-(2,6-dioxopiperidin-3-yl)-4-methoxy-3-oxo-2,3-dihydro-1H-pyrrolo[3,4-c]pyridin-6-yl]piperazin-1-yl}ethyl)piperidin-1-yl]phenyl}piperidin-1-yl)-1H-indole-3-carbonitrile]	0.005	95	0.008	94
COc1nc(N2CCN(CCCC3CCN(c4ccc(C5CCN(c6ccc(Cl)c7c(C#N)c[nH]c67)CC5)cc4)CC3)CC2)cc2c1C(=O)N(C1CCC(=O)NC1=O)C2 (stereo not shown) [Example 88, 4-Chloro-7-(4-{4-[4-(3-{4-[2-(2,6-dioxopiperidin-3-yl)-4-methoxy-3-oxo-2,3-dihydro-1H-pyrrolo[3,4-c]pyridin-6-yl]piperazin-1-yl}propyl)piperidin-1-yl]phenyl}piperidin-1-yl)-1H-indole-3-carbonitrile]	0.013	96	0.021	99
N#Cc1c[nH]c2c(N3CCC(c4ccc(N5CCC(CN6CCC(n7ccc8cc(N9CCC(=O)NC9=O)ccc87)CC6)CC5)cc4)CC3)ccc(F)c12 [Example 89, 7-(4-{4-[4-({4-[5-(2,4-Dioxo-1,3-diazinan-1-yl)-1H-indol-1-yl]piperidin-1-yl}methyl)piperidin-1-yl]phenyl}piperidin-1-yl)-4-fluoro-1H-indole-3-carbonitrile]	0.421	70	0.056	97
N#Cc1c[nH]c2c(N3CCC(c4ccc(N5CCC(CN6CCC(n7ccc8cc(N9CCC(=O)NC9=O)ccc87)CC6)CC5)cc4)CC3)ccc(Cl)c12 [Example 90, 4-Chloro-7-(4-{4-[4-({4-[5-(2,4-dioxo-1,3-diazinan-1-yl)-1H-indol-1-yl]piperidin-1-yl}methyl)piperidin-1-yl]phenyl}piperidin-1-yl)-1H-indole-3-carbonitrile]	0.281	87	0.164	101
Cc1ccc(N2CCN(c3ccc(OCCCCN4CCN(c5ccc6c(c5)CN(C5CCC(=O)NC5=O)C6=O)CC4)cc3)CC2)c2[nH]cc(C#N)c12 (stereo not shown) [Example 95, 7-{4-[4-(4-{4-[2-(2,6-Dioxopiperidin-3-yl)-1-oxo-2,3-dihydro-1H-isoindol-5-yl]piperazin-1-yl}butoxy)phenyl]piperazin-1-yl}-4-methyl-1H-indole-3-carbonitrile]	0.01	54	> 3	
N#Cc1c[nH]c2c(N3CCC(c4ccc(C(=O)N5CCC(CN6CCN(c7cc8c(cc7F)C(=O)N(C7CCC(=O)NC7=O)C8=O)CC6)CC5)cc4)CC3)ccc(Cl)c12 (stereo not shown) [Example 100, 4-Chloro-7-(4-{4-[4-({4-[2-(2,6-dioxopiperidin-3-yl)-6-fluoro-1,3-dioxo-2,3-dihydro-1H-isoindol-5-yl]piperazin-1-yl}methyl)piperidine-1-carbonyl]phenyl}piperidin-1-yl)-1H-indole-3-carbonitrile]	0.029	101	0.449	89
N#Cc1c[nH]c2c(N3CCC(c4ccc(OC5CCN(CC6CCN(c7ccc8c(c7)CN(C7CCC(=O)NC7=O)C8=O)CC6)CC5)cc4)CC3)ccc(F)c12 (stereo not shown) [Example 101, 7-[4-(4-{[1-({1-[2-(2,6-Dioxopiperidin-3-yl)-1-oxo-2,3-dihydro-1H-isoindol-5-yl]piperidin-4-yl}methyl)piperidin-4-yl]oxy}phenyl)piperidin-1-yl]-4-fluoro-1H-indole-3-carbonitrile]	0.006	97	0.015	87
Cc1cc(N2CCC(=O)NC2=O)cc2ccn(C3CCN(CC4CCN(c5ccc(C6CCN(c7ccc(Cl)c8c(C#N)c[nH]c78)CC6)cc5)CC4)CC3)c12 [Example 102, 4-Chloro-7-(4-{4-[4-({4-[5-(2,4-dioxo-1,3-diazinan-1-yl)-7-methyl-1H-indol-1-yl]piperidin-1-yl}methyl)piperidin-1-yl]phenyl}piperidin-1-yl)-1H-indole-3-carbonitrile]	0.052	86	0.044	106
Cn1c(C2CCN(CC3CCN(c4ccc(C5CCN(c6ccc(Cl)c7c(C#N)c[nH]c67)CC5)cc4)CC3)CC2)cc2ncc(N3CCC(=O)NC3=O)cc21 [Example 103, 4-Chloro-7-(4-{4-[4-({4-[6-(2,4-dioxo-1,3-diazinan-1-yl)-1-methyl-1H-pyrrolo[3,2-b]pyridin-2-yl]piperidin-1-yl}methyl)piperidin-1-yl]phenyl}piperidin-1-yl)-1H-indole-3-carbonitrile]	0.008	85	0.007	107
N#Cc1c[nH]c2c(N3CCC[C@@H](c4ccc(N5CCC(CN6CCN(c7ccc(C(=O)NC8CCC(=O)NC8=O)c(F)c7)CC6)CC5)cc4)C3)ccc(Cl)c12 (stereo partly drawn) [Example 104, 4-{4-[(1-{4-[(3S)-1-(4-chloro-3-cyano-1H-indol-7-yl)piperidin-3-yl]phenyl}piperidin-4-yl)methyl]piperazin-1-yl}-N-(2,6-dioxopiperidin-3-yl)-2-fluorobenzamide]	0.013	98	0.046	97
N#Cc1c[nH]c2c(N3CCC(c4ccc(N5CCC(CN6CCN(c7ccc(C(=O)NC8CCC(=O)NC8=O)c(F)c7)CC6)CC5)cc4)CC3)ccc(F)c12 (stereo not shown) [Example 105, 4-{4-[(1-{4-[1-(3-Cyano-4-fluoro-1H-indol-7-yl)piperidin-4-yl]phenyl}piperidin-4-yl)methyl]piperazin-1-yl}-N-(2,6-dioxopiperidin-3-yl)-2-fluorobenzamide]	0.061	89	0.049	95
N#Cc1c[nH]c2c(N3CCC(c4ccc(N5CCC(CN6CCN(c7ccc(C(=O)NC8CCC(=O)NC8=O)c(F)c7)CC6)CC5)cc4)CC3)ccc(Cl)c12 (stereo not shown) [Example 106, 4-{4-[(1-{4-[1-(4-Chloro-3-cyano-1H-indol-7-yl)piperidin-4-yl]phenyl}piperidin-4-yl)methyl]piperazin-1-yl}-N-(2,6-dioxopiperidin-3-yl)-2-fluorobenzamide]	0.022	97	0.05	93
N#Cc1c[nH]c2c(N3CCC(c4ccc(CN5CCN(CC6CCN(c7ccc8c(c7)CN(C7CCC(=O)NC7=O)C8=O)CC6)CC5)cc4)CC3)ccc(F)c12 (stereo not shown) [Example 107, 7-[4-(4-{[4-({1-[2-(2,6-Dioxopiperidin-3-yl)-1-oxo-2,3-dihydro-1H-isoindol-5-yl]piperidin-4-yl}methyl)piperazin-1-yl]methyl}phenyl)piperidin-1-yl]-4-fluoro-1H-indole-3-carbonitrile]	0.006	93	0.3	107
